Here are results for 22 compounds from patent publication US8435978B2, “Substituted sulfonamide compounds” (Gruenenthal GmbH, priority 2006, dated 2013).

Structures can show the parent of a compound that is named as a salt.

The target in one experiment is T1, human B1R receptor (Homo sapiens, UniProt P46663).
T1 construct: host or cells: CHO K1 cells (Chinese hamster ovary), stably transfected
T1 sequence (P46663 1-353): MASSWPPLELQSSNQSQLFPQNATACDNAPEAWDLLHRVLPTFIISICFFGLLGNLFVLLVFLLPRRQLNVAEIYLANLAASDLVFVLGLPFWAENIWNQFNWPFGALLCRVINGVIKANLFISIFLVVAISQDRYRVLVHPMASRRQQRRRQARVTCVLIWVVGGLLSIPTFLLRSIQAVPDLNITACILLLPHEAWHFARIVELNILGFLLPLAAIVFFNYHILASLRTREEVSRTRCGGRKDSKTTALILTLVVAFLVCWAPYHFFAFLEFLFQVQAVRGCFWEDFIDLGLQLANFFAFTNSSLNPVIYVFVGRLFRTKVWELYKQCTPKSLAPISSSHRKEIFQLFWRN
The experiment in a line: Functional study on the bradykinin receptor 1 (B1R), FLIPR Ca2+ assay, hB1R cells. The experiment is classed as cell-based. The conditions noted are these: CHO-K1, test substance 10 μM, agonist Lys-Des-Arg9-bradykinin 0.5 nM, % inhibition compared with the maximum achievable inhibition, read-out: B1R Antagonism, human [10 μM] % Inhibition. Put shortly: (§1)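 CHO K1 cells stably expressing human or rat B1R, Fluo-4-loaded; test compound 10 μM added first (activation % vs agonist), then after 10 min 0.5 nM Lys-Des-Arg9-bradykinin (human) or 100 nM Des-Arg9-bradykinin (rat). Ca2+ peak fluorescence by FLIPR; % inhibition relative to maximum achievable inhibition.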

The next experiment addresses T2, B1R receptor of the rat (Rattus norvegicus, UniProt P97583).
T2 construct: host or cells: CHO K1 cells (Chinese hamster ovary), stably transfected
T2 sequence (P97583 1-337): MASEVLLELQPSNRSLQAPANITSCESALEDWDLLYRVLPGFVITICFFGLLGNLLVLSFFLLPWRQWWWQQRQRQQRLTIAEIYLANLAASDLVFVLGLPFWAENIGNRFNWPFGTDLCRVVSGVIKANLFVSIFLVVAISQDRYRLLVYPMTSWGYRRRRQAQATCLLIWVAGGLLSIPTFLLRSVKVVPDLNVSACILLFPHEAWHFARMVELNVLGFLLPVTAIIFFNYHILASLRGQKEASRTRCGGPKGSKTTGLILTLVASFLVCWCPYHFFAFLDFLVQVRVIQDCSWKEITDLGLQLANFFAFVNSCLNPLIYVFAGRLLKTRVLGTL
The experiment in a line: Functional study on the bradykinin receptor 1 (B1R), FLIPR Ca2+ assay, rB1R cells. The experiment is classed as cell-based. To be noted: CHO-K1, test substance 10 μM, agonist Des-Arg9-bradykinin 100 nM, % inhibition compared with the maximum achievable inhibition, read-out: B1R Antagonism, rat [10 μM] % Inhibition. Put shortly: as §1

Consider `COc1ccc(CN2CCN(C(=O)COCC3CCCN3S(=O)(=O)c3c(Cl)cccc3Cl)CC2)cc1` (centres unmarked) [Example 451, 2-((1-(2,6-dichlorophenylsulfonyl)pyrrolidin-2-yl)methoxy)-1-(4-(4-methoxybenzyl)piperazin-1-yl)ethanone], for which the results for the inhibition at 10 µM at human B1R receptor and at B1R receptor of the rat were 80.7% and 99.2%, respectively.
With `COc1cc(C)c(S(=O)(=O)N2CCCC2COCC(=O)N2CCN(CCc3ccccc3)CC2)c(C)c1` (centres unmarked) [Example 310, 2-((1-(4-methoxy-2,6-dimethylphenylsulfonyl)pyrrolidin-2-yl)methoxy)-1-(4-phenethylpiperazin-1-yl)ethanone], the figures for the inhibition at 10 µM on human B1R receptor and on B1R receptor of the rat were 106% and 102%, respectively.
As to `COc1cc(C)c(S(=O)(=O)N2Cc3ccccc3CC2COCC(=O)N2CCC(N3CCN(C)CC3)CC2)c(C)c1C` (centres unmarked) [Example 275, 2-((2-(4-methoxy-2,3,6-trimethylphenylsulfonyl)-1,2,3,4-tetrahydroisoquinolin-3-yl)methoxy)-1-(4-(4-methylpiperazin-1-yl)piperidin-1-yl)ethanone], the results for the inhibition at 10 µM on human B1R receptor and on B1R receptor of the rat were 102% and 93.1%, respectively.
Take `COc1cc(C)c(S(=O)(=O)N2CCCCC2COCC(=O)N2CC[C@@H](N(C)C)C2)c(C)c1` (stereo partly drawn) [Example 363, 1-((R)-3-(dimethylamino)pyrrolidin-1-yl)-2-((1-(4-methoxy-2,6-dimethylphenylsulfonyl)piperidin-2-yl)methoxy)ethanone]: the inhibition at 10 µM turned out to be 90.7% at human B1R receptor and 101% on B1R receptor of the rat.
Regarding `COc1cc(C)c(S(=O)(=O)N2CCCC2COCC(=O)Nc2ccc3cnn(C)c3c2)c(C)c1` (centres unmarked) [Example 501, 2-((1-(4-methoxy-2,6-dimethylphenylsulfonyl)pyrrolidin-2-yl)methoxy)-N-(1-methyl-1H-indazol-6-yl)acetamide], the inhibition at 10 µM on human B1R receptor came to 65.1%; at B1R receptor of the rat, 89.7%.
Consider `COc1cc(C)c(S(=O)(=O)N2CCCCC2COCC(=O)N2CCC[C@H]2CN2CCCC2)c(C)c1` (stereo partly drawn) [Example 374, 2-((1-(4-methoxy-2,6-dimethylphenylsulfonyl)piperidin-2-yl)methoxy)-1-((S)-2-(pyrrolidin-1-ylmethyl)pyrrolidin-1-yl)ethanone], for which the inhibition at 10 µM at human B1R receptor is 80.8%; at B1R receptor of the rat, 102%.
For `COc1cc(C)c(S(=O)(=O)N2CCCC[C@H]2COCC(=O)N2CCC(Oc3ccncc3)CC2)c(C)c1` [Example 186, (S)-2-((1-(4-methoxy-2,6-dimethylphenylsulfonyl)piperidin-2-yl)methoxy)-1-(4-(pyridin-4-yloxy)piperidin-1-yl)ethanone hydrochloride], the inhibition at 10 µM came out at 106% on human B1R receptor and 97.1% at B1R receptor of the rat.
As to `COc1cc(C)c(S(=O)(=O)N2CCCCC2COCC(=O)N2CCC(N3CCc4cnccc4C3)CC2)c(C)c1` (centres unmarked) [Example 100, 1-(4-(3,4-dihydro-2,6-naphthyridin-2(1H)-yl)piperidin-1-yl)-2-((1-(4-methoxy-2,6-dimethylphenylsulfonyl)piperidin-2-yl)methoxy)ethanone], the figures for the inhibition at 10 µM on human B1R receptor and on B1R receptor of the rat were 104% and 102%, respectively.
On to `COc1ccc2cc(S(=O)(=O)N3CCCCC3COCC(=O)N3CCN(C4CCN(C)CC4)CC3)ccc2c1` (centres unmarked) [Example 210, 2-((1-(6-methoxynaphthalen-2-ylsulfonyl)piperidin-2-yl)methoxy)-1-(4-(1-methylpiperidin-4-yl)piperazin-1-yl)ethanone], for which the inhibition at 10 µM amounted to 106% at human B1R receptor and 96% at B1R receptor of the rat.
`CN1CCC(N2CCN(C(=O)COCC3CCCCN3S(=O)(=O)c3c(Cl)cc(C(F)(F)F)cc3Cl)CC2)CC1` (centres unmarked) [Example 108, 2-((1-(2,6-dichloro-4-(trifluoromethyl)phenylsulfonyl)piperidin-2-yl)methoxy)-1-(4-(1-methylpiperidin-4-yl)piperazin-1-yl)ethanone]: the inhibition at 10 µM on human B1R receptor and on B1R receptor of the rat was 102% each time.
Turning to `O=C(COCC1CCCN1S(=O)(=O)c1c(Cl)cc(Cl)cc1Cl)NCCN1CCCCC1` (centres unmarked) [Example 338, N-(2-(piperidin-1-yl)ethyl)-2-((1-(2,4,6-trichlorophenylsulfonyl)pyrrolidin-2-yl)methoxy)acetamide], the inhibition at 10 µM is 92.6% at human B1R receptor and 92.2% at B1R receptor of the rat.
Take `Cc1ccccc1Oc1cccc(S(=O)(=O)N2CCCCC2COCC(=O)N2CCN(C3CCN(C)CC3)CC2)c1` (centres unmarked) [Example 131, 1-(4-(1-methylpiperidin-4-yl)piperazin-1-yl)-2-((1-(3-(o-tolyloxy)phenylsulfonyl)piperidin-2-yl)methoxy)ethanone]: the inhibition at 10 µM on human B1R receptor was determined as 82.1%; at B1R receptor of the rat it was 95.4%.
For `COc1cc(C)c(S(=O)(=O)N2CCCC2COCC(=O)N2CCC(CCN3CCCC3)CC2)c(C)c1` (centres unmarked) [Example 95, 2-((1-(4-methoxy-2,6-dimethylphenylsulfonyl)pyrrolidin-2-yl)methoxy)-1-(4-(2-(pyrrolidin-1-yl)ethyl)piperidin-1-yl)ethanone], the inhibition at 10 µM is 107% at human B1R receptor and 101% on B1R receptor of the rat.
As for `COc1cc(C)c(S(=O)(=O)N2CCCC2COCC(=O)N2CCCCCC2c2ccc(N(C)C)cc2)c(C)c1` (centres unmarked) [Example 475, 1-(2-(4-(dimethylamino)phenyl)azepan-1-yl)-2-((1-(4-methoxy-2,6-dimethylphenylsulfonyl)pyrrolidin-2-yl)methoxy)ethanone], the inhibition at 10 µM at human B1R receptor turned out to be 90.4%; at B1R receptor of the rat it was 102%.
Take `Cc1ccc(C)n1CCN1CCN(C(=O)COCC2CCCN2S(=O)(=O)c2c(Cl)cccc2Cl)CC1` (centres unmarked) [Example 287, 2-((1-(2,6-dichlorophenylsulfonyl)pyrrolidin-2-yl)methoxy)-1-(4-(2-(2,5-dimethyl-1H-pyrrol-1-yl)ethyl)piperazin-1-yl)ethanone]: the inhibition at 10 µM amounted to 101% at human B1R receptor and 89.2% on B1R receptor of the rat.
For the compound `COc1cc(C)c(S(=O)(=O)N2CCCC2COCC(=O)N2CCN(CCn3c(C)ccc3C)CC2)c(C)c1` (centres unmarked) [Example 269, 1-(4-(2-(2,5-dimethyl-1H-pyrrol-1-yl)ethyl)piperazin-1-yl)-2-((1-(4-methoxy-2,6-dimethylphenylsulfonyl)pyrrolidin-2-yl)methoxy)ethanone], the values for the inhibition at 10 µM at human B1R receptor and at B1R receptor of the rat were 104% and 99%, respectively.
Turning to `COc1cc(C)c(S(=O)(=O)N2CCCCC2COCC(=O)N2CCC(Oc3cccnc3)CC2)c(C)c1` (centres unmarked) [Example 165, 2-((1-(4-methoxy-2,6-dimethylphenylsulfonyl)piperidin-2-yl)methoxy)-1-(4-(pyridin-3-yloxy)piperidin-1-yl)ethanone], the inhibition at 10 µM came out at 97.1% at human B1R receptor and 96.8% on B1R receptor of the rat.
The matching figures for `COc1cc(C)c(S(=O)(=O)N2CCCCC2COCC(=O)N2CCCCCC2c2ccc(N(C)C)cc2)c(C)c1` (centres unmarked) [Example 400, 1-(2-(4-(dimethylamino)phenyl)azepan-1-yl)-2-((1-(4-methoxy-2,6-dimethylphenylsulfonyl)piperidin-2-yl)methoxy)ethanone]: 62% and 102%.
For `COc1cc(C)c(S(=O)(=O)N2CCCCC2COCC(=O)N2CCC(N3CCC(F)CC3)CC2)c(C)c1` (centres unmarked) [Example 130, 1-(4-fluoro-1,4′-bipiperidin-1′-yl)-2-((1-(4-methoxy-2,6-dimethylphenylsulfonyl)piperidin-2-yl)methoxy)ethanone], the results for the inhibition at 10 µM at human B1R receptor and on B1R receptor of the rat were 103% and 96.3%, respectively.
For the compound `COc1cc(C)c(S(=O)(=O)N2CCCCC2COCC(=O)N(C)C(CN2CCOCC2)c2ccccc2)c(C)c1` (centres unmarked) [Example 368, 2-((1-(4-methoxy-2,6-dimethylphenylsulfonyl)piperidin-2-yl)methoxy)-N-methyl-N-(2-morpholino-1-phenylethyl)acetamide], the inhibition at 10 µM on human B1R receptor turned out to be 62.1%; on B1R receptor of the rat, 101%.
Turning to `COc1cc(C)c(S(=O)(=O)N2CCCC2COCC(=O)N2CCN(c3ccc(F)cc3)CC2)c(C)c1` (centres unmarked) [Example 307, 1-(4-(4-fluorophenyl)piperazin-1-yl)-2-((1-(4-methoxy-2,6-dimethylphenylsulfonyl)pyrrolidin-2-yl)methoxy)ethanone], the inhibition at 10 µM was determined as 105% at human B1R receptor and 98.4% on B1R receptor of the rat.
The corresponding values for `Cc1cc(C)nc(CC2CCCN2C(=O)COCC2CCCCN2S(=O)(=O)c2c(Cl)cccc2Cl)c1` (centres unmarked) [Example 457, 2-((1-(2,6-dichlorophenylsulfonyl)piperidin-2-yl)methoxy)-1-(2-((4,6-dimethylpyridin-2-yl)methyl)pyrrolidin-1-yl)ethanone] are 102% and 99.7%.

The term inhibition denotes the drop in the measured response relative to a control, in per cent.
